Values joined by “and” are separate entries in the source; they are usually repeats but may differ in a detail not shown here. Equal entries are not always repeated. Where two headings read alike, the source gives them in different places. Marks after values point to notes of the source that are not given here.
Tests used:
MAO-A [1] = biological target: T1, MAO-A (Homo sapiens, UniProt P21397); design: method as in PMID 23374869; conditions: MAO-A inhibition; cited from earlier work
T1 sequence (P21397 1-527): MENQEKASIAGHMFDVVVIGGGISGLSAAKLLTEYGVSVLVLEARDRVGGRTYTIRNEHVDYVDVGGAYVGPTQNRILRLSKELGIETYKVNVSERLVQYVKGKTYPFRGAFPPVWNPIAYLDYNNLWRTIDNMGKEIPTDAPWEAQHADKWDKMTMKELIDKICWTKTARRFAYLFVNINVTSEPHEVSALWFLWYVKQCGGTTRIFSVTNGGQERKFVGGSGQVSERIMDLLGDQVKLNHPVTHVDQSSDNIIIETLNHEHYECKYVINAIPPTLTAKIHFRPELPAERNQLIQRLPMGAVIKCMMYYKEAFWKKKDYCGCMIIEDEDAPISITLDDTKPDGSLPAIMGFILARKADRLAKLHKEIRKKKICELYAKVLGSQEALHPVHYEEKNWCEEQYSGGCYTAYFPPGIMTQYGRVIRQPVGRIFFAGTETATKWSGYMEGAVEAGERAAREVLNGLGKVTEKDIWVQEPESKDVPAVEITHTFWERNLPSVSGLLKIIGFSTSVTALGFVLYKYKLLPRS

[2] = design: method as in PMID 23169608; conditions: in vivo; cited from earlier work
[3] = design: method as in PMID 34060121; conditions: rat plasma and liver microsomes; cited from earlier work
MAO-A [4] = biological target: T1, MAO-A; assay: Isothermal titration calorimetry (ITC) of the interaction of MAO-A with the compounds; format: binding
Experimental: (§1) Protein-ligand interaction analysis was performed using isothermal titration calorimetry (ITC). During the analysis, the heat of uptake or release, due to the interaction of MAO-A with the tested compounds, was recorded. In this way, raw data were obtained in the form of exothermic heat versus time graphs. Additionally, the ligand was injected into 1% DMSO with methanol to subtract the energetic effects of the dilution of the ligand solution. The highest negative change in enthalpy was characterized by the interaction of the enzyme with compounds 3 (−19.19 kJ/mol) and 4 (−13.37 kJ/mol), and the lowest value of ΔH was recorded during interactions with compound 1 (−4.51 kJ/mol). […] Affinity (ΔG) values were more evenly distributed between compound 1, compounds 1 with 4, 2 with 4, and 2 with 3. […] The ability of the ligands to inhibit […] activity was described on the basis of the IC50 parameter.
(§2) A MicroCal PEAQ-ITC200 calorimeter (Malvern, Worcestershire, UK) was used to study the interactions of MAO-A with the compounds. The enzyme and compounds were prepared in 1% DMSO with methanol. The measurements were performed at 36.6 °C. The stirring speed was set to 307 rpm, and a total of 19 injections were performed within 50 min, with the reference power set to 10.00 μcal/s. All sample solutions were thoroughly degassed before use. The calorimetric cell was filled with a 20 μM (350 µL) MAO-A sample, and the syringe (2 µL of injection volume) was loaded with a 1 mM/L solution or/and 5-HT (1 mM/L). The ITC data were processed using MicroCal PEAQ-ITC analysis software with calorimetric routines. The following parameters were determined: the standard interaction Gibbs energy (ΔG), standard interaction enthalpy (ΔH), entropy (ΔS), equilibrium constant (KD), and stoichiometry of reaction (N).

MAO-A [5] = biological target: T1, MAO-A; assay: Inhibition of 5-HT deamination by the MAO-A enzyme (ITC); format: biochemical; conditions: for IC50: rate of 5-HT deamination
Experimental: as §1
Compounds 4 and 4 combined with 2 were at a similar level of about 5 μmol/μmol of the enzyme. Substrate 1, tested with lactones 2 and 3, turned out to be the least beneficial compounds, with a high concentration inhibiting the activity of the enzyme by 50%, and had the least favorable affinity. This effect can be explained by the binding of several compounds in the mixture to different MAO-A residues at the active site and in other regions. Molecular docking can be used in future research to confirm this assumption.
as §2

[6] = test system: primary rat hepatocytes and primary human hepatocytes; conditions: repetitive administration; cited from earlier work
[7] = test system: primary human hepatocytes; conditions: concentration 0–500 µM; cited from earlier work
primary rat hepatocytes = conditions: concentration 0–500 µM; cited from earlier work
[8] = ITC, 36.6 °C, mean ± SD, n = 3, read-out: KD
[9] = KM 5-HT 0.35 mmol, mean ± SD, n = 3, read-out: Ki

SMILES	Ki (MAO-A [1])	rank among circulating human metabolites of 3-n-butylphthalide [2]	rank among metabolites of 3-n-butylphthalide [3]	KA ∗ 10^3 (MAO-A [4]; ITC, 36.6 °C, mean ± SD, n = 3)	∆G (affinity) (MAO-A [4]; ITC, 36.6 °C, mean ± SD, n = 3)	∆H (MAO-A [4]; ITC, 36.6 °C, mean ± SD, n = 3)	∆S (MAO-A [4]; ITC, 36.6 °C, mean ± SD, n = 3)	Kd (MAO-A [4]; [8])	Ki (MAO-A [5]; [9])	IC50 (MAO-A [5])	cell viability [6]	Kd (MAO-A [4])	toxicity [7]	Ki (MAO-A [5])	toxicity (primary rat hepatocytes)
O=C1OCc2ccc(OCCCc3ccccc3)cc21 [6-phenyl-propoxyphthalide]	0.062 µM														
CC(O)CCC1OC(=O)c2ccccc21 (centres unmarked) [Compound 2, 3-n-butyl-10-hydroxyphthalide]		dominant circulating human metabolite	main metabolite	33.44 ± 0.15 ^a 10^3 L/mol	−26.79 ± 1.55 ^j kJ/mol	−7.77 ± 0.01 ^e kJ/mol	61.55 ± 1.84 ^d J/mol ∗ K	29.9 ± 1.09 µM	994 ± 3.18 µM						
O=C(O)CCCC1OC(=O)c2ccccc21 (centres unmarked) [Compound 4, 3-n-butylphthalide-11-oic acid]				14.83 ± 0.25 ^e 10^3 L/mol	−28.42 kJ/mol and −28.42 ± 1.43 ^j kJ/mol	−13.37 kJ/mol and −13.37 ± 0.02 ^f kJ/mol	48.71 ± 1.05 ^a J/mol ∗ K	67.4 ± 3.15 µM	128 ± 1.25 µM	about 5 μmol/μmol of enzyme					
CCCCC1OC(=O)c2ccccc21 (centres unmarked) [Compound 1, 3-n-butylphthalide]				41.15 ± 0.36 ^d 10^3 L/mol	-6.532 ± 0.272 kcal/mol	−4.51 kJ/mol and −4.51 ± 0.02 ^e kJ/mol	73.85 ± 1.05 ^d J/mol ∗ K				reduction in cell viability	24.3 ± 1.39 µM	not toxic	241 ± 3.55 µM	not toxic
O=C1OC(CCCCO)c2ccccc21 (centres unmarked) [Compound 3, 3-n-butyl-11-hydroxyphthalide]				4.18 ± 0.35 ^e 10^3 L/mol	−23.49 kJ/mol and −23.49 ± 1.42 ^i kJ/mol	−19.19 kJ/mol and −19.19 ± 0.01 ^f kJ/mol	13.92 ± 0.92 ^a J/mol ∗ K	239 ± 4.25 µM	< 0.001 µM	1.29 μmol/μmol of enzyme					

— PMC10342118, “Microbial Metabolites of 3-n-butylphthalide as Monoamine Oxidase A Inhibitors” (International Journal of Molecular Sciences, 2023)
